Source: patent US11530221B2, “Pyrimido[4,5-d]pyrimidin-2-one derivatives as protein kinase inhibitors” (KOREA INSTITUTE OF SCIENCE AND TECHNOLOGY, priority 2019, dated 2022)
Where two headings read alike, the source gives them in different places. Each block holds one compound with its values, some of them ahead of it. Square brackets hold non-standard residues; d marks the D form. Peptide text beside a SMILES is read from it. * marks the point of attachment. X1 = Cc1ccc(Nc2ncc3c(n2)N(C)C(=O)N(c2cc(C(=O)*)ccc2C)C3)cn1; Aib = CC(C)(N)C(=O)O

Experiments:
Assay type in all cases: biochemical
c-Src [1] = target: T1, c-Src (Homo sapiens, UniProt P12931); experiment: IC50 inhibitory activity against c-Src kinase
Procedure: (§1) IC50 values were calculated by measuring the inhibitory activity against LCK, c-Src, p38a/MAPK14, ABL1, DDR1 and FGR kinases of the compounds of the present invention.

LCK [2] = target: T2, LCK (Homo sapiens, UniProt P06239); experiment: IC50 inhibitory activity against LCK kinase
Procedure: as §1

LYN [3] = target: T3, LYN (Homo sapiens, UniProt P07948); experiment: IC50 inhibitory activity against LYN kinase
ABL1 (T315I) = ABL1 (T315I) (Homo sapiens, UniProt P00519, T315I); experiment: IC50 inhibitory activity against ABL1 (T315I) kinase
Procedure: as §1

p38a/MAPK14 = p38a/MAPK14 (Homo sapiens, UniProt Q16539); experiment: IC50 inhibitory activity against p38a/MAPK14 kinase
Procedure: as §1

ABL1 = ABL1 (Homo sapiens, UniProt P00519); experiment: IC50 inhibitory activity against ABL1 kinase
Procedure: as §1

BMX = target: T4, BMX (Homo sapiens, UniProt P51813); experiment: Full kinase panel, single concentration: BMX; details: read-out: residual enzyme activity (%) BMX
T4 sequence (P51813 1-675): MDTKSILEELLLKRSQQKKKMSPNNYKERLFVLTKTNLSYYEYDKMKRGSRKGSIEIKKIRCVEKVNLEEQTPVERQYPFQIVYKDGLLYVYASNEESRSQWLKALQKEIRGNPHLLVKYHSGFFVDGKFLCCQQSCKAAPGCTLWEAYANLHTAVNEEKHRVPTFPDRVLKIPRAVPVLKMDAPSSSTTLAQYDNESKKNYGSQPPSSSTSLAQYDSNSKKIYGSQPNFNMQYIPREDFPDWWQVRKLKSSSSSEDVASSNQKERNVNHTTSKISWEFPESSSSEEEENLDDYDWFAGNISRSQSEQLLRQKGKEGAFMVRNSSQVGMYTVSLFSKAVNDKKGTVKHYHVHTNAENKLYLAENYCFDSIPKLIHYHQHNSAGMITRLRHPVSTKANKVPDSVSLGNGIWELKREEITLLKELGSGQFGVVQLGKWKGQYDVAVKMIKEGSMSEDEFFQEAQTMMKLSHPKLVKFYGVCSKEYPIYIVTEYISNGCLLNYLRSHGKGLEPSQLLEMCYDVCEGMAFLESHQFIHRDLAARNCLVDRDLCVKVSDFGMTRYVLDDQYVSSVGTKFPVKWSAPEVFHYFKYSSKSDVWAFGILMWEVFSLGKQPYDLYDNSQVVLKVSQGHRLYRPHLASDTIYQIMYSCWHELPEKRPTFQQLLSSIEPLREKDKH
Procedure: (§2) In order to measure the inhibitory activity (% inhibitory capacity) against protein kinases of the compounds of the present invention, biochemical assays were performed using a full kinase panel.
(§3) The experimental compounds used herein were the compounds of Compound Nos. 1 and 33. The residual enzyme activity (%) was calculated by measuring the inhibitory activity against kinases upon treatment with the experimental compound at a single concentration of 1 μM. Kinases having calculated residual enzyme activity (%) of 30% or less (that is, inhibition of 70% or more) are shown below.

HCK = HCK (Homo sapiens, UniProt P08631); experiment: Full kinase panel, single concentration: HCK; details: read-out: residual enzyme activity (%) HCK
Procedure: as §2, §3

DDR1 [4] = target: T5, DDR1 (Homo sapiens, UniProt Q08345); experiment: Full kinase panel, single concentration: DDR1; details: read-out: residual enzyme activity (%) DDR1
Procedure: as §2, §3

DDR1 [5] = target: T5, DDR1; experiment: IC50 inhibitory activity against DDR1 kinase
Procedure: as §1

c-Src [6] = target: T1, c-Src; experiment: Full kinase panel, single concentration: c-Src; details: read-out: residual enzyme activity (%) c-Src
Procedure: as §2, §3

ABL2 = ABL2 (Homo sapiens, UniProt P42684); experiment: Full kinase panel, single concentration: ABL2; details: read-out: residual enzyme activity (%) ABL2
Procedure: as §2, §3

LCK [7] = target: T2, LCK; experiment: Full kinase panel, single concentration: LCK; details: read-out: residual enzyme activity (%) LCK
Procedure: as §2, §3

FGR [8] = target: T6, FGR (Homo sapiens, UniProt P09769); experiment: Full kinase panel, single concentration: FGR; details: read-out: residual enzyme activity (%) FGR
Procedure: as §2, §3

BLK = BLK (Homo sapiens, UniProt P51451); experiment: Full kinase panel, single concentration: BLK; details: read-out: residual enzyme activity (%) BLK
Procedure: as §2, §3

LYN [9] = target: T3, LYN; experiment: Full kinase panel, single concentration: LYN; details: read-out: residual enzyme activity (%) LYN
Procedure: as §2, §3

CSK = CSK (Homo sapiens, UniProt P41240); experiment: Full kinase panel, single concentration: CSK; details: read-out: residual enzyme activity (%) CSK
Procedure: as §2, §3

FGR [10] = target: T6, FGR; experiment: IC50 inhibitory activity against FGR kinase
Procedure: as §1

RAF1 = RAF1 (Homo sapiens, UniProt P04049); experiment: Full kinase panel, single concentration: RAF1; details: read-out: residual enzyme activity (%) RAF1
Procedure: as §2, §3

DDR2 = target: T7, DDR2 (Homo sapiens, UniProt Q16832); experiment: Full kinase panel, single concentration: DDR2; details: read-out: residual enzyme activity (%) DDR2
T7 sequence (Q16832 22-855): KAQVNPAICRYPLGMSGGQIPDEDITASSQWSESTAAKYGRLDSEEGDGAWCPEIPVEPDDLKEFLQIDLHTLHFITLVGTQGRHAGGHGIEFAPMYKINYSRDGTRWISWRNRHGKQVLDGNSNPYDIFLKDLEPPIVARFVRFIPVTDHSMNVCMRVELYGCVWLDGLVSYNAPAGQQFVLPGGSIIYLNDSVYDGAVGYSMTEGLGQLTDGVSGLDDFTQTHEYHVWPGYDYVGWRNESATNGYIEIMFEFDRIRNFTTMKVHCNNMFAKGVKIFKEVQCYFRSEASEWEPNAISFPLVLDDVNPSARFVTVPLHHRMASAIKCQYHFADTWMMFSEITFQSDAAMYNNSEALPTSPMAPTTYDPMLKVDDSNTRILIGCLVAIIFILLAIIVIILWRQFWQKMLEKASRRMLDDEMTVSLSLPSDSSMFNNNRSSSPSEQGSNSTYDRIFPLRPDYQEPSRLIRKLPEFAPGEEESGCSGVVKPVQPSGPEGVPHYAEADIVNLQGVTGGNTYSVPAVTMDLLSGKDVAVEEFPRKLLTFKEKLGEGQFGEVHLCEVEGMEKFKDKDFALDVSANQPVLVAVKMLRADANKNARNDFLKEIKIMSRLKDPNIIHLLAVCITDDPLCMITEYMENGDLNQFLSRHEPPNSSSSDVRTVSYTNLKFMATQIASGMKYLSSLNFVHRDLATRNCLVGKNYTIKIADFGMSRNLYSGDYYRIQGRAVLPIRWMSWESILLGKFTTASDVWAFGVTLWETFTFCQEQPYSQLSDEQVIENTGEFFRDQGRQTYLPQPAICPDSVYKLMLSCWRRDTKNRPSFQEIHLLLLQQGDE
Procedure: as §2, §3

T1 sequence (P12931 whole entry): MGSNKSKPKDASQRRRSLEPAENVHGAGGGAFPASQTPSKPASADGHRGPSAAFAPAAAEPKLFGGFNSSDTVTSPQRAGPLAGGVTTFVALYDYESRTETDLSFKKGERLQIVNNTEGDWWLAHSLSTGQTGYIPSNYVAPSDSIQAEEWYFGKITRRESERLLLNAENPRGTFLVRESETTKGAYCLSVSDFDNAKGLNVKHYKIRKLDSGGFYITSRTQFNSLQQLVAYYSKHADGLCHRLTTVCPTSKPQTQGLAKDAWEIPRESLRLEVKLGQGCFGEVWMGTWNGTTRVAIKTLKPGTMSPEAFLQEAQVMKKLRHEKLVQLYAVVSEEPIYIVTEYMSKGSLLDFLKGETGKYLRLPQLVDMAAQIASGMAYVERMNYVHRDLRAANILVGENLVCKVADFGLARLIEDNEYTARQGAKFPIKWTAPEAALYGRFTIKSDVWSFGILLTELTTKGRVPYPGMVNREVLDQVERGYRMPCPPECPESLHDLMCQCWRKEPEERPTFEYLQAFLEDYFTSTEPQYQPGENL
T3 sequence (P07948 whole entry): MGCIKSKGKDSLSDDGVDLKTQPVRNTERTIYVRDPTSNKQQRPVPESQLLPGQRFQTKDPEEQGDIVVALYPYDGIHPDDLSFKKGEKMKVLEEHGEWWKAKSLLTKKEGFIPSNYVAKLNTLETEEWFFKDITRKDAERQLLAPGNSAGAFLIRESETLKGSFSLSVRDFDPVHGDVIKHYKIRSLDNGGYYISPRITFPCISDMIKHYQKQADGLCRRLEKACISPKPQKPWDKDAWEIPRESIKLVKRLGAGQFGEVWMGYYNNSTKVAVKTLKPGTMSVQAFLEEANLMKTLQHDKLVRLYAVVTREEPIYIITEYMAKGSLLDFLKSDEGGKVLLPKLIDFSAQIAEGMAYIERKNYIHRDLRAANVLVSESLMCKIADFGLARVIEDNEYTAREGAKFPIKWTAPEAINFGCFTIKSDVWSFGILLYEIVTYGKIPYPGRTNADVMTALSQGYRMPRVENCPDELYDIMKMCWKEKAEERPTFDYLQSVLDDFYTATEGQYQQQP
T2 sequence (P06239 whole entry): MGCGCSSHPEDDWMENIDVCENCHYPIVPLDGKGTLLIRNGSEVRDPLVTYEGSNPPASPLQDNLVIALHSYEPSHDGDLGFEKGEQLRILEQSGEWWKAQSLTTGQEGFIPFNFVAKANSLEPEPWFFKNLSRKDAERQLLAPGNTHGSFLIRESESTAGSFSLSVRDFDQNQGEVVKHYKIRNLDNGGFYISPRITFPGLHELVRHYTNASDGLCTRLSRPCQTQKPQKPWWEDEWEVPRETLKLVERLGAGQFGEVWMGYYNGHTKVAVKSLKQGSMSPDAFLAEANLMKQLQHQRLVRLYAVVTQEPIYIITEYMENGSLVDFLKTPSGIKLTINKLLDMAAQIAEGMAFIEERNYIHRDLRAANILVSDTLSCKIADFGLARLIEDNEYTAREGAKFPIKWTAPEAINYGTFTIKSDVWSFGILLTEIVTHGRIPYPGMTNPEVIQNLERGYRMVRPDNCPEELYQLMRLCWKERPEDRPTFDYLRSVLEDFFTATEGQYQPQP
Sequence of p38a/MAPK14 (Q16539 whole entry): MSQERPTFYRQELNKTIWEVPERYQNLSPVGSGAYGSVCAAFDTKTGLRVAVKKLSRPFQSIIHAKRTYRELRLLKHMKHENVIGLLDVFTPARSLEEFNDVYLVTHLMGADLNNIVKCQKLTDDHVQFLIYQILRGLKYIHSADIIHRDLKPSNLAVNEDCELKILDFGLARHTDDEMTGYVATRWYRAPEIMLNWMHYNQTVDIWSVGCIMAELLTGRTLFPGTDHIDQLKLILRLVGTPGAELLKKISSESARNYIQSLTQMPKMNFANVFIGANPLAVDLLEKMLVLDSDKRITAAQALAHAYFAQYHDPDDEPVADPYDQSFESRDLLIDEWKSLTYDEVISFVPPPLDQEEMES
T5 sequence (Q08345 19-913): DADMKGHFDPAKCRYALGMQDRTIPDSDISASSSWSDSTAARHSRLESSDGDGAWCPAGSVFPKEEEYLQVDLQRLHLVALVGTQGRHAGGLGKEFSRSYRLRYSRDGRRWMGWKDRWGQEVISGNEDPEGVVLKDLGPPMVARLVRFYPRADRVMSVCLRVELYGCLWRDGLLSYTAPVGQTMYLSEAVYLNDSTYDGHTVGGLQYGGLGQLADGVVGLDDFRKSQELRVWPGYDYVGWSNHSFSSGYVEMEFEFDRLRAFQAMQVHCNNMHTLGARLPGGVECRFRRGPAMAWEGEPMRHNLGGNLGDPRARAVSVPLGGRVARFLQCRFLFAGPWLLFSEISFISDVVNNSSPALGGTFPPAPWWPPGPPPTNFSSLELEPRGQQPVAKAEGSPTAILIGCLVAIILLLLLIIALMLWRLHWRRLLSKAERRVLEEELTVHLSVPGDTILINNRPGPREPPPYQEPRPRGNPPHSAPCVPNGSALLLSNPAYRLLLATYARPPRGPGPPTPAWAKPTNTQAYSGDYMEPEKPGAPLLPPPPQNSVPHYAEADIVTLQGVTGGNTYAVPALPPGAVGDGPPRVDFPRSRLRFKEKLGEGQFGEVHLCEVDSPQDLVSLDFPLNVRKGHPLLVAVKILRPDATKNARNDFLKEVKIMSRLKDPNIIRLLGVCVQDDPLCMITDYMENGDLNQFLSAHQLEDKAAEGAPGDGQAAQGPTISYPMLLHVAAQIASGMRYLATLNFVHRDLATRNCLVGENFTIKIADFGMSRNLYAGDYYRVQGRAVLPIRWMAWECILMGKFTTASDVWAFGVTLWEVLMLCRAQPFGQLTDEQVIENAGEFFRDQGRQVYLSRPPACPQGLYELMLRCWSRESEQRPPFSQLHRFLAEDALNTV
T6 sequence (P09769 whole entry): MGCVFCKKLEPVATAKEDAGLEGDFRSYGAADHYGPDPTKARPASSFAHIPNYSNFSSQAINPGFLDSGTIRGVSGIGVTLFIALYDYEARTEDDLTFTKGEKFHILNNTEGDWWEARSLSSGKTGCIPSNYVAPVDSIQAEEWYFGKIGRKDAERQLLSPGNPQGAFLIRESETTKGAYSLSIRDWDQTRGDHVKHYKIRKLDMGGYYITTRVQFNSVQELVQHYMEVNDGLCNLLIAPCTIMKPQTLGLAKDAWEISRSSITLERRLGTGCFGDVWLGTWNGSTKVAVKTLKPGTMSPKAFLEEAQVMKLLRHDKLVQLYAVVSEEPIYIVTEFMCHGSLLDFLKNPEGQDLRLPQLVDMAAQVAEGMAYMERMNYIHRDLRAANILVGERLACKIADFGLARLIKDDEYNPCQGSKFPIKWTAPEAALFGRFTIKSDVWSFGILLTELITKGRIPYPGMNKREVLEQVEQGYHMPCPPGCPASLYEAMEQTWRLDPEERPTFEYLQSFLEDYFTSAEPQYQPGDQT
Sequence of HCK (P08631 whole entry): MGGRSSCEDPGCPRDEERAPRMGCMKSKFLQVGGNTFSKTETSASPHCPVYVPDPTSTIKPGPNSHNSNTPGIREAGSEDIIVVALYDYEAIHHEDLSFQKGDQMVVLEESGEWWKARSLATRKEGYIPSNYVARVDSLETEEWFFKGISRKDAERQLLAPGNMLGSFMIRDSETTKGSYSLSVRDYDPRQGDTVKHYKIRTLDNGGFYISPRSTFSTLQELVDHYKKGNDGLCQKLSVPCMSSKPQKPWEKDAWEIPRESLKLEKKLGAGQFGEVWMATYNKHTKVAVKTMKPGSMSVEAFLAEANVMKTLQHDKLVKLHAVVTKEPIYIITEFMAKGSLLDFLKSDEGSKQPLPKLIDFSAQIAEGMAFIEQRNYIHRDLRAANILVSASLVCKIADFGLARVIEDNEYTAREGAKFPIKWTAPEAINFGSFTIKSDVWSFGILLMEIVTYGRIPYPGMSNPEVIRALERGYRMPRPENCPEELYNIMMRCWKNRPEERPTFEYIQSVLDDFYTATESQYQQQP
Sequence of BLK (P51451 whole entry): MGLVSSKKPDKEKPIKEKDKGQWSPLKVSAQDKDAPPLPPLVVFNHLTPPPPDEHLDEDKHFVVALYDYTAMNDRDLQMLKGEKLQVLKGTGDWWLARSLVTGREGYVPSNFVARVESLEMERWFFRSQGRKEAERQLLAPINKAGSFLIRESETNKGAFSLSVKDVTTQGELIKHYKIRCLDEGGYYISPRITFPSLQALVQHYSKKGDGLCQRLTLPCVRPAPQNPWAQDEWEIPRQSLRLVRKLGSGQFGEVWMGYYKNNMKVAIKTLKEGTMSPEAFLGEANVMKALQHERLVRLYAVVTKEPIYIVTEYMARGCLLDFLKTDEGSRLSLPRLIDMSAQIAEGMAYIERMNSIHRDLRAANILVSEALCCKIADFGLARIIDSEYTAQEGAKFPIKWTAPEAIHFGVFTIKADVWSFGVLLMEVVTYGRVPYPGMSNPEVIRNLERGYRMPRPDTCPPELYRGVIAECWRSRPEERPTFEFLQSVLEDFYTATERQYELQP
Sequence of RAF1 (P04049 whole entry): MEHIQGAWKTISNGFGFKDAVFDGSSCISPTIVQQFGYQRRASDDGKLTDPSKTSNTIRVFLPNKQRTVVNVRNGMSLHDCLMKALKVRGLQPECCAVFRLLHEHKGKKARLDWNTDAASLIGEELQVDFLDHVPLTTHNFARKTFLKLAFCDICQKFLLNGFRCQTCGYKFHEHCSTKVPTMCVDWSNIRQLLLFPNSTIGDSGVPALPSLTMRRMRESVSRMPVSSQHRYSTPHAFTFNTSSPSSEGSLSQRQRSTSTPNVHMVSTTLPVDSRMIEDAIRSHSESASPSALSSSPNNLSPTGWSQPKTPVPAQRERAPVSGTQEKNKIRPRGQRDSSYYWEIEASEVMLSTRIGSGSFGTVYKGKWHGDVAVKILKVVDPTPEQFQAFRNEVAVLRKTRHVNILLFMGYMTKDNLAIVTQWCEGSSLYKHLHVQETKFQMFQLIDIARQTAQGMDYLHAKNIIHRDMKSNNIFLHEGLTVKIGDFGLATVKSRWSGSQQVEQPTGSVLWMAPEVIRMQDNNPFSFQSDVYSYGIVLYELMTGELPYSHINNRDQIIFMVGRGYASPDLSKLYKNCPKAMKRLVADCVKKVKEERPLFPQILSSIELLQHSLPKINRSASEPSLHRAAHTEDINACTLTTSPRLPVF

SMILES: CC1=N[C@H](Cc2ccccc2)C(=O)Nc2cc(C(=O)Nc3ccc(C)c(N4Cc5cnc(Nc6ccc(C)nc6)nc5N(C)C4=O)c3)ccc21 [Example 35, (R)-3-benzyl-5-methyl-N-(4-methyl-3-(1-methyl-7-((6-methylpyridin-3-yl)amino)-2-oxo-1,4-dihydropyrimido[4,5-d]pyrimidin-3(2H)-yl)phenyl)-2-oxo-2,3-dihydro-1H-benzo[e][1,4]diazepine-8-carboxamide]
IC50 (c-Src [1]; read-out: c-Src IC50): 1 to 200 nM
IC50 (LCK [2]; read-out: LCK IC50): 1 to 200 nM
IC50 (LYN [3]): 1 to 200 nM

SMILES: Cc1ccc(Nc2ncc3c(n2)N(C)C(=O)N(c2cc(NC(=O)c4ccc5c(c4)N(Cc4ccccc4)C(=O)[C@H](C)N=C5c4ccccc4)ccc2C)C3)cn1 [Example 31, (S)-1-benzyl-3-methyl-N-(4-methyl-3-(1-methyl-7-((6-methylpyridin-3-yl)amino)-2-oxo-1,4-dihydropyrimido[4,5-d]pyrimidin-3(2H)-yl)phenyl)-2-oxo-5-phenyl-2,3-dihydro-1H-benzo[e][1,4]diazepine-8-carboxamide]
IC50 (c-Src [1]; read-out: c-Src IC50): 1 to 200 nM
IC50 (ABL1 (T315I); read-out: ABL1 (T315I) IC50): > 600 nM
IC50 (p38a/MAPK14; read-out: p38a/MAPK14 IC50): 1 to 200 nM
IC50 (LCK [2]; read-out: LCK IC50): 1 to 200 nM
IC50 (LYN [3]): 1 to 200 nM
IC50 (ABL1; read-out: ABL1 IC50): 1 to 200 nM

SMILES: Cc1ccc(Nc2ncc3c(n2)N(C)C(=O)N(c2cc(C(=O)N[C@H](C(=O)N4CCC[C@H]4C(=O)NC(C)(C)C(=O)N[C@@H](CC(C)C)C(=O)N(C)C)C(C)C)ccc2C)C3)cn1 [Example 1, (S)—N-(1-(((S)-1-(dimethylamino)-4-methyl-1-oxopentan-2-yl)amino)-2-methyl-1-oxopropan-2-yl)-1-((4-methyl-3-(1-methyl-7-((6-methylpyridin-3-yl)amino)-2-oxo-1,4-dihydropyrimido[4,5-d]pyrimidin-3(2H)-yl)benzoyl)-L-valyl)pyrrolidine-2-carboxamide] (X1-VP[Aib]L-NMe2)
remaining activity at 1 µM (BMX): ≤ 30%
remaining activity at 1 µM (HCK): ≤ 30%
remaining activity at 1 µM (DDR1 [4]): ≤ 30%
IC50 (DDR1 [5]): 1 to 200 nM
IC50 (c-Src [1]): > 600 nM
remaining activity at 1 µM (c-Src [6]): ≤ 30%
IC50 (ABL1 (T315I)): > 600 nM
remaining activity at 1 µM (ABL2): ≤ 30%
IC50 (p38a/MAPK14): > 600 nM
remaining activity at 1 µM (LCK [7]): ≤ 30%
remaining activity at 1 µM (FGR [8]): ≤ 30%
remaining activity at 1 µM (BLK): ≤ 30%
remaining activity at 1 µM (LYN [9]): ≤ 30%
remaining activity at 1 µM (CSK): ≤ 30%
IC50 (FGR [10]): 1 to 200 nM
IC50 (LCK [2]): 1 to 200 nM
remaining activity at 1 µM (RAF1): ≤ 30%
IC50 (ABL1): 200 to 400 nM
remaining activity at 1 µM (DDR2): ≤ 30%

SMILES: Cc1ccc(Nc2ncc3c(n2)N(C)C(=O)N(c2cc(C(=O)N[C@H](C(=O)N4CCC[C@@H]4C(=O)NC(C)(C)C(=O)N[C@@H](CC(C)C)C(=O)N(C)C)C(C)C)ccc2C)C3)cn1 [Example 2, (R)—N-(1-(((S)-1-(dimethylamino)-4-methyl-1-oxopentan-2-yl)amino)-2-methyl-1-oxopropan-2-yl)-1-((4-methyl-3-(1-methyl-7-((6-methylpyridin-3-yl)amino)-2-oxo-1,4-dihydropyrimido[4,5-d]pyrimidin-3(2H)-yl)benzoyl)-L-valyl)pyrrolidine-2-carboxamide] (X1-V[dP][Aib]L-NMe2)
IC50 (c-Src [1]): 200 to 400 nM
IC50 (ABL1 (T315I)): > 600 nM
IC50 (p38a/MAPK14): > 600 nM
IC50 (LCK [2]): 1 to 200 nM
IC50 (ABL1): 200 to 400 nM

SMILES: C=CCN1C(=O)[C@H](CC(C)C)N=C(c2ccccc2)c2ccc(C(=O)Nc3ccc(C)c(N4Cc5cnc(Nc6ccc(C)nc6)nc5N(C)C4=O)c3)cc21 [Example 38, (S)-1-allyl-3-isobutyl-N-(4-methyl-3-(1-methyl-7-((6-methylpyridin-3-yl)amino)-2-oxo-1,4-dihydropyrimido[4,5-d]pyrimidin-3(2H)-yl)phenyl)-2-oxo-5-phenyl-2,3-dihydro-1H-benzo[e][1,4]diazepine-8-carboxamide]
IC50 (c-Src [1]; read-out: c-Src IC50): 200 to 400 nM
IC50 (LCK [2]; read-out: LCK IC50): 1 to 200 nM
IC50 (LYN [3]): 1 to 200 nM

The next lines start with the values.

IC50 (c-Src [1]; read-out: c-Src IC50): 1 to 200 nM
IC50 (LCK [2]; read-out: LCK IC50): 1 to 200 nM
IC50 (LYN [3]): 1 to 200 nM
SMILES: CC1=N[C@@H](Cc2ccccc2)C(=O)Nc2cc(C(=O)Nc3ccc(C)c(N4Cc5cnc(Nc6ccc(C)nc6)nc5N(C)C4=O)c3)ccc21 [Example 34, (S)-3-benzyl-5-methyl-N-(4-methyl-3-(1-methyl-7-((6-methylpyridin-3-yl)amino)-2-oxo-1,4-dihydropyrimido[4,5-d]pyrimidin-3(2H)-yl)phenyl)-2-oxo-2,3-dihydro-1H-benzo[e][1,4]diazepine-8-carboxamide]

IC50 (c-Src [1]; read-out: c-Src IC50): 1 to 200 nM
IC50 (LCK [2]; read-out: LCK IC50): 1 to 200 nM
IC50 (LYN [3]): 1 to 200 nM
SMILES: Cc1ccc(Nc2ncc3c(n2)N(C)C(=O)N(c2cc(NC(=O)c4ccc5c(c4)N(C)C(=O)[C@H](CC(C)C)N=C5c4ccccc4)ccc2C)C3)cn1 [Example 37, (S)-3-isobutyl-1-methyl-N-(4-methyl-3-(1-methyl-7-((6-methylpyridin-3-yl)amino)-2-oxo-1,4-dihydropyrimido[4,5-d]pyrimidin-3(2H)-yl)phenyl)-2-oxo-5-phenyl-2,3-dihydro-1H-benzo[e][1,4]diazepine-8-carboxamide]

IC50 (c-Src [1]; read-out: c-Src IC50): 1 to 200 nM
IC50 (ABL1 (T315I); read-out: ABL1 (T315I) IC50): > 600 nM
IC50 (p38a/MAPK14; read-out: p38a/MAPK14 IC50): > 600 nM
IC50 (LCK [2]; read-out: LCK IC50): 1 to 200 nM
IC50 (ABL1; read-out: ABL1 IC50): 1 to 200 nM
SMILES: Cc1ccc(Nc2ncc3c(n2)N(C)C(=O)N(c2cc(NC(=O)c4ccc5c(c4)NC(=O)[C@H](Cc4ccccc4)N=C5c4ccccc4)ccc2C)C3)cn1 [Example 26, (S)-3-benzyl-N-(4-methyl-3-(1-methyl-7-((6-methylpyridin-3-yl)amino)-2-oxo-1,4-dihydropyrimido[4,5-d]pyrimidin-3(2H)-yl)phenyl)-2-oxo-5-phenyl-2,3-dihydro-1H-benzo[e][1,4]diazepine-8-carboxamide]
